Test results published in patent US12059393B2, “Compositions for topical treatment of radiation dermatitis” (Akos Biosciences, Inc, priority 2022, dated 2024).

Assays:
[1] = LDH cytotoxicity assay in 3D in vitro skin model; assay type: cell-based; conditions: no UV, topical 24 h
Experimental: (§1) A 3D in vitro skin model containing epidermal keratinocytes and dermal fibroblasts was used. Some tissues were irradiated with 200 mJ UVB/cm^2. Test materials were applied topically for 24 hours (after UVB exposure) and an MTT assay was used to check the viability of cells. The following treatment groups were used: • olive oil (no CBD); • CBD in olive oil in concentrations of 30, 60, 120, and 250 mg/mL; • No treatment; and • Triton-X® as positive control.
(§2) Cytotoxicity was assessed with a lactate dehydrogenase (LDH) assay using media collected from the wells of the tissues. Increased LDH activity is an indicator of damaged or dead cells.
(§3) The results are provided in the following Table A, with the untreated group defining 0% cytotoxicity and Triton-X defining 100% cytotoxicity. Lower cytotoxicity is better. * indicates p≤0.05 and ** indicates p≤0.01 statistical significance after performing unpaired t-test.

[2] = system: 3D in vitro skin model containing epidermal keratinocytes and dermal fibroblasts; test: LDH cytotoxicity assay in 3D in vitro skin model; assay type: cell-based; conditions: light or radiation study, UV (200 mJ UVB/cm^2), topical 24 h
Experimental: as §1, §2, §3

Compound C=C(C)[C@@H]1CCC(C)=C[C@H]1c1c(O)cc(CCCCC)cc1O [CBD, 2-[(1R,6R)-6-Isopropenyl-3-methylcyclohex-2-en-1-yl]-5-pentylbenzene-1,3-diol] has a cytotoxicity at 24 h, 30 mg/mL ([1]; 30 mg/mL CBD in olive oil, untreated=0%, Triton-X=100%) of 4%, a cytotoxicity at 24 h, 60 mg/mL ([1]; 60 mg/mL CBD in olive oil) of 4% and a cytotoxicity at 24 h, 120 mg/mL ([1]; 120 mg/mL CBD in olive oil) of 5%. It also gave a cytotoxicity at 24 h, 250 mg/mL ([1]; 250 mg/mL CBD in olive oil) of 11%, a cytotoxicity at 30000 µg/mL ([2]; 30 mg/mL CBD in olive oil) of 17% and a cytotoxicity at 60000 µg/mL ([2]; 60 mg/mL CBD in olive oil) of 19%. It also gave a cytotoxicity at 120000 µg/mL ([2]; 120 mg/mL CBD in olive oil) of 16% and a cytotoxicity at 250000 µg/mL ([2]; 250 mg/mL CBD in olive oil) of 16%.
